According to ChEMBL document CHEMBL1201862, “PubChem BioAssay data set” (2004):
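Growth conditions: 96-well plates. Treatment: test compound, 48 hours, 5 concentrations. Analysis: linear interpolation between bracketing concentrations; unreached endpoints set to highest concentration. GI50 is the concentration that inhibits growth by half.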 Activity calls are given as the source filed them. Cut-off read from the data, not from the text of the source: active = GI50 up to about 1.1 µM and inactive = higher.

How the values were obtained:
Assay in all cases: inhibition of tumour cell growth, NCI panel, 48 h
786-0 = tested on: 786-0
ACHN = tested on: ACHN
CCRF-CEM = tested on: CCRF-CEM
HT-29 = tested on: HT-29
Hs-578T = tested on: Hs-578T
MDA-MB-435 = tested on: MDA-MB-435
MOLT-4 = tested on: MOLT-4
NCI-H226 = tested on: NCI-H226
NCI-H23 = tested on: NCI-H23
RPMI-8226 = tested on: RPMI-8226
SF-539 = tested on: SF-539
SK-MEL-5 = tested on: SK-MEL-5
SK-OV-3 = tested on: SK-OV-3
SR = tested on: SR
TK-10 = tested on: TK-10
U-251 = tested on: U-251
A498 = tested on: A498
HOP-92 = tested on: HOP-92
NCI/ADR-RES = tested on: NCI/ADR-RES
SF-268 = tested on: SF-268

SMILES | GI50 (786-0) | GI50 (ACHN) | GI50 (CCRF-CEM) | GI50 (HT-29) | GI50 (Hs-578T) | GI50 (MDA-MB-435) | GI50 (MOLT-4) | GI50 (NCI-H226) | GI50 (NCI-H23) | GI50 (RPMI-8226) | GI50 (SF-539) | GI50 (SK-MEL-5) | GI50 (SK-OV-3) | GI50 (SR) | GI50 (TK-10) | GI50 (U-251) | GI50 (A498) | GI50 (HOP-92) | GI50 (NCI/ADR-RES) | GI50 (SF-268)
COc1cc2c(c(OC)c1OC)-c1ccc(SC)cc1C(=O)CC2 | < 0.01 µM (active) | < 0.01 µM (active) | < 0.01 µM (active) | < 0.01 µM (active) | < 0.01 µM (active) | < 0.01 µM (active) | < 0.01 µM (active) | < 0.01 µM (active) | < 0.01 µM (active) | < 0.01 µM (active) | < 0.01 µM (active) | < 0.01 µM (active) | < 0.01 µM (active) | < 0.0213 µM (active) | > 100 µM (inactive) | < 0.01 µM (active) | – | – | – | –
O=C1c2ccccc2C(=O)N1c1ccc(Cc2ccc(N3C(=O)c4ccccc4C3=O)cc2)cc1 | > 100 µM (inactive) | > 100 µM (inactive) | – | > 100 µM (inactive) | > 100 µM (inactive) | > 100 µM (inactive) | 3.02 µM (inactive) | > 100 µM (inactive) | > 100 µM (inactive) | > 100 µM (inactive) | > 80.9 µM (inactive) | > 100 µM (inactive) | > 100 µM (inactive) | – | > 100 µM (inactive) | > 100 µM (inactive) | > 100 µM (inactive) | > 100 µM (inactive) | > 100 µM (inactive) | > 100 µM (inactive)
c1cc2nnnn2nc1N1CCCC1 | > 100 µM (inactive) | > 100 µM (inactive) | > 100 µM (inactive) | > 100 µM (inactive) | – | > 100 µM (inactive) | > 100 µM (inactive) | > 100 µM (inactive) | > 100 µM (inactive) | > 100 µM (inactive) | > 100 µM (inactive) | > 100 µM (inactive) | > 100 µM (inactive) | > 100 µM (inactive) | > 100 µM (inactive) | > 100 µM (inactive) | > 100 µM (inactive) | > 100 µM (inactive) | > 100 µM (inactive) | > 100 µM (inactive)
CCOC(=O)c1cc2c(ccc3cc(C(=O)OCC)[nH]c32)[nH]1 | 15.6 µM (inactive) | 55.5 µM (inactive) | 27.8 µM (inactive) | – | 17.2 µM (inactive) | 15.3 µM (inactive) | 35.8 µM (inactive) | – | 27.2 µM (inactive) | 57.1 µM (inactive) | 12.3 µM (inactive) | 25.8 µM (inactive) | > 100 µM (inactive) | 17.5 µM (inactive) | 50.2 µM (inactive) | 6.15 µM (inactive) | 52 µM (inactive) | 78.7 µM (inactive) | – | 17.1 µM (inactive)
COc1cccc(/C=N/NC(=O)CN(C)C)c1O | > 100 µM (inactive) | > 100 µM (inactive) | > 100 µM (inactive) | > 100 µM (inactive) | > 100 µM (inactive) | > 100 µM (inactive) | > 100 µM (inactive) | 72.8 µM (inactive) | > 100 µM (inactive) | – | > 100 µM (inactive) | > 100 µM (inactive) | > 100 µM (inactive) | – | > 100 µM (inactive) | > 100 µM (inactive) | > 100 µM (inactive) | > 100 µM (inactive) | > 100 µM (inactive) | > 100 µM (inactive)
COc1cc2c3c(c4cc(OC)c(OC)cc4c2cc1OC)C(=O)C1CCC(=O)N1C3 (configuration not stated) | – | 5.86 µM (inactive) | 6.64 µM (inactive) | – | 3.3 µM (inactive) | 21.9 µM (inactive) | 3.27 µM (inactive) | – | 55 µM (inactive) | 2.02 µM (inactive) | 10.9 µM (inactive) | 34 µM (inactive) | 14.2 µM (inactive) | – | 12.8 µM (inactive) | 26.3 µM (inactive) | 14.9 µM (inactive) | 12 µM (inactive) | 94.4 µM (inactive) | 22.2 µM (inactive)
COc1ccc(C2SCC(=O)N2NC(=O)c2ccc(NC(C)=O)cc2)c(OC)c1 (configuration not stated) | > 100 µM (inactive) | > 100 µM (inactive) | – | > 100 µM (inactive) | > 100 µM (inactive) | > 100 µM (inactive) | > 100 µM (inactive) | > 100 µM (inactive) | > 100 µM (inactive) | > 100 µM (inactive) | > 100 µM (inactive) | > 100 µM (inactive) | > 100 µM (inactive) | – | > 100 µM (inactive) | 33.6 µM (inactive) | > 100 µM (inactive) | > 100 µM (inactive) | > 100 µM (inactive) | > 100 µM (inactive)
ClCCCN(CCCCl)c1ccc(/C=N/c2cccc(Cl)c2)cc1 | 18.3 µM (inactive) | 7.26 µM (inactive) | 16.4 µM (inactive) | 23.6 µM (inactive) | 16.1 µM (inactive) | 28.8 µM (inactive) | 14.4 µM (inactive) | 2.03 µM (inactive) | 15.5 µM (inactive) | 17.2 µM (inactive) | 53.2 µM (inactive) | – | 49.5 µM (inactive) | – | 4.48 µM (inactive) | 26.9 µM (inactive) | – | 29.2 µM (inactive) | 11.2 µM (inactive) | 21.7 µM (inactive)
CC(C)C[P+](c1ccccc1)(c1ccccc1)c1ccccc1 | 41.5 µM (inactive) | 20.2 µM (inactive) | 0.419 µM (active) | 3.64 µM (inactive) | 11.2 µM (inactive) | 2.87 µM (inactive) | 3.57 µM (inactive) | 8.79 µM (inactive) | 7.4 µM (inactive) | < 0.01 µM (active) | 14.8 µM (inactive) | 2.86 µM (inactive) | 19.8 µM (inactive) | – | 7.08 µM (inactive) | 3.12 µM (inactive) | 32.1 µM (inactive) | 3.32 µM (inactive) | > 100 µM (inactive) | 10.3 µM (inactive)
O=C(NCCCCCCNCc1cccc2ccccc12)Nc1cccc2ccccc12 | > 100 µM (inactive) | > 100 µM (inactive) | > 100 µM (inactive) | > 100 µM (inactive) | > 100 µM (inactive) | > 100 µM (inactive) | > 100 µM (inactive) | – | > 100 µM (inactive) | > 100 µM (inactive) | > 100 µM (inactive) | > 100 µM (inactive) | – | – | > 100 µM (inactive) | > 100 µM (inactive) | > 100 µM (inactive) | > 100 µM (inactive) | > 100 µM (inactive) | > 100 µM (inactive)
COc1cc([N+](=O)[O-])c(S(=O)(=O)O)cc1-n1nc(-c2ccccc2)n[n+]1-c1cc(S(=O)(=O)[O-])c([N+](=O)[O-])cc1OC | > 100 µM (inactive) | > 100 µM (inactive) | > 100 µM (inactive) | > 100 µM (inactive) | > 100 µM (inactive) | > 100 µM (inactive) | > 100 µM (inactive) | > 100 µM (inactive) | > 100 µM (inactive) | > 100 µM (inactive) | > 100 µM (inactive) | > 100 µM (inactive) | > 100 µM (inactive) | > 100 µM (inactive) | – | > 100 µM (inactive) | – | – | > 100 µM (inactive) | > 100 µM (inactive)
